Results taken from patent EP4799637A1, “NASAL ADMINISTRATION COMPOSITION CONTAINING GLP-1 RECEPTOR AGONIST, AND PREPARATION METHOD THEREFOR AND USE THEREOF” (Zhongshan Wanhan Pharmaceutical Co., Ltd., priority 2023, dated 2025).

Columns and labels:
[1] = parallel artificial membrane permeability assay (PAMPA) of semaglutide formulations with permeation promoters; format: in vitro ADME; details: Skin PAMPA, permeation promoters at the same concentration of 0.25% (w/v%)
Experimental: 1.1. Test objective: to investigate the differences in in-vitro permeability of semaglutide having a concentration of 10 mM in pH7.4 […] buffer by using the PAMPA method after the addition of different types and proportions of permeation promoters. An appropriate amount of 10 mM semaglutide mother liquor was weighed and placed in a liquid phase injection vial, and different permeation promoters were weighed and added correspondingly according to types and proportions listed in Table 1; a magnetic stirrer was added; the magnetic stirrer was turned on to adjust a rotation speed to 650 rpm; and the temperature of the magnetic stirrer was kept at 37°C, followed by stirring for later use. Table 1 • Donor wells solutions were solutions of Formulations 1-20; • An acceptor wells solution was pH 7.4 Prisma HT buffer. • 1) PAMPA membrane hydration: a Hydration Solution (Pion) was prepared (used at room temperature); donor wells of a PAMPA plate were carefully removed; 200 μl of Hydration Solution was added to each well, and whether each empty surface forms a curved surface due to surface tension was observed; and acceptor wells of the PAMPA plate were covered carefully, while air bubbles were avoided on contact surfaces. The Hydration Solution was kept moist and hydrated overnight, and the hydrated membrane will appear translucent or have white spots. […]

[2] = Compatibility/stability study: HPLC main peak purity and impurities after storage in the dark at 40°C and 50°C; format: physicochemical; details: result in words
Experimental: The changes in semaglutide content and impurities in a semaglutide solution, semaglutide+different permeation promoter solutions, and semaglutide+different bacteriostatic agent solutions were determined under HPLC conditions in Example 1 after being stored in the dark for 10 days (10 D) at 40°C and 50°C, and the results were shown in Table 7.
The definitions of the hydrophilic impurities 1 and 2 and the hydrophobic impurity in Table 7 were shown in HPLC chromatograms of Formulations C1 to C4 shown in FIGS. 1-4 determined at 50°C on Day 10.
As a control, main peak intensities of compositions J and K in CN116942612A at 50°C on Day 5 were determined using the same method, both of which were below 95%.

## CCCCCCCCCCCCO[C@@H]1O[C@H](CO)[C@@H](O[C@H]2O[C@H](CO)[C@@H](O)[C@H](O)[C@H]2O)[C@H](O)[C@H]1O [dodecyl-β-D-maltoside]
[1]
  permeation promoting effect: better permeation promoting effects

## CCCCCCCCCCCC(=O)OCCOCCOCCOCCOCCOCCOCCOCCOCCOCCOCCOCCOCCOCCOCCOCCOCCOCCOCCOCCOCC(OCCOCCOCCOCCOCCOCCOCCOCCOCCOCCOCCOCCOCCOCCOCCOCCOCCOCCOCCOCCO)C1OCC(OCCOCCOCCOCCOCCOCCOCCOCCOCCOCCOCCOCCOCCOCCOCCOCCOCCOCCOCCOCCO)C1OCCOCCOCCOCCOCCOCCOCCOCCOCCOCCOCCOCCOCCOCCOCCOCCOCCOCCOCCOCCO (stereo not shown) [polysorbate-20]
[1]
  permeation promoting effect: better permeation promoting effects

## benzalkonium chloride
[2]
  protective effect on semaglutide (inhibited degradation): protective effect on semaglutide

## polyoxyethylene (8) dodecyl ether
[1]
  permeation promoting effect: better permeation promoting effects
